# Data published in patent publication US6642434B1, “Transgenic plants with γ-tocopherol methyltransferase” (University of Community College System of Nevada, priority 1997, dated 2003).
# Key:
# [1] = system: Synechocystis γ-tocopherol methyltransferase (SLR0089); assay: γ-TMT assay with Synechocystis SLR0089 protein expressed in E. coli; format: biochemical, Synechocystis PCC6803; details: for use as substrate (methylation) by Synechocystis γ-TMT: 5 mM substrate, pH 7.5, 14C-methyl-SAM, 30 minutes room temperature
# Experimental: (§1) The p011698-1 and p011898-1 constructs were used to transform the E. coli T7 expression host BL21(DE3). To generate protein for γ-TMT assays, one liter cultures of transformed host cells containing one of the constructs were grown in Luria broth containing 100 mg/liter ampicillin. Each culture was started at an optical density at 600 nm (OD600) of 0.1 and incubated in a shaking incubator at 28° C. until the culture reached an OD600 of 0.6, at which time isopropyl-, β-D-thiogalactopyranoside (IPTG) was added to each culture to obtain a final concentration of 0.4 mM IPTG. Each culture was incubated for an additional 3 hours at 28° C. and the cells were harvested by centrifugation at 8,000 g. The cell pellets were then resupended in 10 ml of 10 mM HEPES (pH 7.8), 5 mM DTT, 0.24 M sorbitol, 1 mM PMSF. The cells were lysed by sonication with a micro-tip sonicator using four 10-second pulses. Triton×100 was added to each homogenate to a final concentration of 1%. The homogenates were incubated on ice for 30 minutes, and subjected to centrifugation at 30,000 g for 30 minutes at 4° C. The supernatants of these extracts were assayed for γ-tocopherol methyltransferase activity as follows.
# (§2) The γ-TMT assays were performed in 250 μl volumes containing 50 mM Tris (pH 7.5 for the Synechocystis and pH 8.5 for the Arabidopsis enzyme), 5 mM DTT, 5 mM γ- or δ-tocopherol, and 0.025 μCi (55 μCi/mmole) (^14C-methyl)-S-adenosylmethionine. Reaction mixtures were incubated at room temperature for 30 minutes. The reactions were stopped by adding of 1 ml of 2:1 (v:v) CHCl3: methanol containing 1 mg/ml butylated hydroxytolulene (BHT) and 250 μl of 0.9% NaCl in water, and vortexing. The samples were centrifuged to separate the phases. The CHCl3 (lower) phase was transferred to a fresh tube containing […] of α-tocopherol and the CHCl3 was then removed under vacuum in a speed-vac. The dried lipid fraction was resuspended in 50 μl ethyl acetate containing 1 mg/ml BHT. The lipid extracts were fractionated on silica 60 TLC plates in dichloromethane. Tocopherols were then identified by co-migration with authentic tocopherol standards after staining the plate with Emmerie-Engels solution (0.1% FeCl3, 0.25% 2,2′-dipyridyl in ethanol). The band corresponding to α-tocopherol was scraped from the TLC plate and the amount of radioactive material present was determined by scintillation counting.
# (§3) The Synechocystis and Arabidopsis γ-tocopherol methyltransferases were tested for activity using several different methyl-substituted tocopherol substrates. […] The two enzymes were unable to use tocol, 5,7-diemethyltocol, β-tocopherol, and γ-tocotrienol as substrates. […] The Synechocystis and Arabidopsis γ-TMTs appear to require substrates with a methyl-group present on the 8 position of the chromanol ring and a fully saturated prenyl-tail for activity.
# [2] = target: T1, Arabidopsis γ-tocopherol methyltransferase (165H5T7) (Arabidopsis thaliana, UniProt Q9ZSK1); assay: γ-TMT assay with Arabidopsis 165H5T7 protein expressed in E. coli; format: biochemical; details: for use as substrate (methylation) by Arabidopsis γ-TMT: 5 mM substrate, pH 8.5, 14C-methyl-SAM, 30 minutes room temperature
# T1 construct: made in house; host or cells: E. coli BL21(DE3), pET3D vector; Triton X-100 supernatant of the lysate
# T1 sequence (Q9ZSK1 51-348): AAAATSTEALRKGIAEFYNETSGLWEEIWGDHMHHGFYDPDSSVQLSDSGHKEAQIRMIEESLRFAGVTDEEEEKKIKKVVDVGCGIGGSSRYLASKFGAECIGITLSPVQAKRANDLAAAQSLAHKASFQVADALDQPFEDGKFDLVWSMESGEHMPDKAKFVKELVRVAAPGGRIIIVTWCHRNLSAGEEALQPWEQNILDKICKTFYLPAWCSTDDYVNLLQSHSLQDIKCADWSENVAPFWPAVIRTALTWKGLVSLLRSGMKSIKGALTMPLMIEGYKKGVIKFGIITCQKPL
# Experimental: as §1, §2, §3
Structure (SMILES),use as substrate (methylation) by Synechocystis γ-TMT [1],use as substrate (methylation) by Arabidopsis γ-TMT [2],relative activity of Synechocystis γ-TMT toward γ- and δ-tocopherol [1],relative activity of Arabidopsis γ-TMT toward γ- and δ-tocopherol [2]
"Cc1cc2c(c(C)c1O)CCC(C)(CCCC(C)CCCC(C)CCCC(C)C)O2 (stereo not shown) [5,7-diemethyltocol]",unable to use,unable to use,–,–
CC(C)CCCC(C)CCCC(C)CCCC1(C)CCc2cc(O)ccc2O1 (stereo not shown) [tocol],unable to use,unable to use,–,–
Cc1cc(O)c(C)c2c1O[C@](C)(CCC[C@H](C)CCC[C@H](C)CCCC(C)C)CC2 [β-tocopherol],unable to use,unable to use,–,–
Cc1c(O)cc2c(c1C)O[C@](C)(CCC[C@H](C)CCC[C@H](C)CCCC(C)C)CC2 [γ-tocopherol],able to convert γ-tocopherol to α-tocopherol,able to convert γ-tocopherol to α-tocopherol,equally active toward γ-tocopherol and δ-tocopherol,greater activity with γ-tocopherol as the substrate than with the δ-tocopherol substrate
CC(C)=CCC/C(C)=C/CC/C(C)=C/CC[C@]1(C)CCc2cc(O)c(C)c(C)c2O1 [γ-tocotrienol],unable to use,unable to use,–,–
Cc1cc(O)cc2c1O[C@](C)(CCC[C@H](C)CCC[C@H](C)CCCC(C)C)CC2 [δ-tocopherol],able to specifically convert δ-tocopherol to β-tocopherol,able to specifically convert δ-tocopherol to β-tocopherol,equally active toward γ-tocopherol and δ-tocopherol,greater activity with γ-tocopherol as the substrate than with the δ-tocopherol substrate
